US7842324B2 (Senomyx, Inc., priority 2005, dated 2010)

Biological target: T1, hT1R2/hT1R3 sweet receptor expressed in HEK293 cell line (Homo sapiens, UniProt Q7RTX0+Q8TE23)
T1 construct: expressed in transfected cells; host or cells: HEK293 derivative stably expressing Gα15 and hT1R2/hT1R3, clone S-9
T1 sequence (Q8TE23 20-839): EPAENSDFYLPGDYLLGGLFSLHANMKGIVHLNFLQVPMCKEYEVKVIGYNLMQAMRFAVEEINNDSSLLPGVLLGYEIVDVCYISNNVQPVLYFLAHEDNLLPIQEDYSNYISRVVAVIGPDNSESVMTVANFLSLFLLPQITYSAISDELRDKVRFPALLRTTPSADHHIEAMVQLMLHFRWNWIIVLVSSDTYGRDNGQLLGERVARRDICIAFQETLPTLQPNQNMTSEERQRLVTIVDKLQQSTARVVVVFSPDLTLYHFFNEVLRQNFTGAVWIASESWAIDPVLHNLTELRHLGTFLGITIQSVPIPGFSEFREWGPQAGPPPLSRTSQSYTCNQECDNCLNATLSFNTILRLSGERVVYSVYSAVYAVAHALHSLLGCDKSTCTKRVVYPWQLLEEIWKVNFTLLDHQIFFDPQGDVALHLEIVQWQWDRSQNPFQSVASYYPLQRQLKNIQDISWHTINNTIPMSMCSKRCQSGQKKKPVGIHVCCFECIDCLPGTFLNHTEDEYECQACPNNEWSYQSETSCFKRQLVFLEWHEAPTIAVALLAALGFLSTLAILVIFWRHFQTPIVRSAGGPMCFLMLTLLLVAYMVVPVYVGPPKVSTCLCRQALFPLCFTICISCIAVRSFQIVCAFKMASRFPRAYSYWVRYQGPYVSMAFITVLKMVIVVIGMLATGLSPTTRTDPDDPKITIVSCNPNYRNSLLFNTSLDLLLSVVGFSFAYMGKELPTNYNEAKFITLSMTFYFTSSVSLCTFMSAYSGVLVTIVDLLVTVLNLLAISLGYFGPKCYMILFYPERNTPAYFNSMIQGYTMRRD
T1 sequence (Q7RTX0 21-852): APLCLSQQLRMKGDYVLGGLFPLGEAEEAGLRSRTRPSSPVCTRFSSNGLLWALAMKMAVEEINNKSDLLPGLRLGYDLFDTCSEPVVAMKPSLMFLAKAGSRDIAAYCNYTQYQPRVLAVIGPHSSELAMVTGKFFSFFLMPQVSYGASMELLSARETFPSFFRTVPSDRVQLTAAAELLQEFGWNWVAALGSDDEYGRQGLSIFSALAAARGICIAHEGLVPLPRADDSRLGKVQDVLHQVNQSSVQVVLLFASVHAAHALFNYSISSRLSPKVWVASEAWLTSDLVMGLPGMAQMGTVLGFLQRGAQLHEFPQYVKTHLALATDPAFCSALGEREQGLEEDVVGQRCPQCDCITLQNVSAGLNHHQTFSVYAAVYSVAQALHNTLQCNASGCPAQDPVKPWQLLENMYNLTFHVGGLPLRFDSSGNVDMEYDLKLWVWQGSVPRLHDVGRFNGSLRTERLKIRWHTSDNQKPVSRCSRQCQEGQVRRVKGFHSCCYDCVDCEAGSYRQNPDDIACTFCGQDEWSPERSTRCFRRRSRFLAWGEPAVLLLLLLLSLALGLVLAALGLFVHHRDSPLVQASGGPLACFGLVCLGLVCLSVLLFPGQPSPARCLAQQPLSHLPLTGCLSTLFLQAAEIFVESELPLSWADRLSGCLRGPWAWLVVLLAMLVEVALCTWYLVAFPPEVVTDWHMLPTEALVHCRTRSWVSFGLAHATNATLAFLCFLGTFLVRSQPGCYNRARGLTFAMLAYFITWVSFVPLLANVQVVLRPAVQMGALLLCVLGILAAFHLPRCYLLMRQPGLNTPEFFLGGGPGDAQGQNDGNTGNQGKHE
Experiment: In vitro hT1R2/hT1R3-HEK293 taste receptor activation assay (FLIPR)
Type: cell-based
Conditions: Table A; read-out: SWEET EC50
Procedure: An HEK293 cell line derivative (Chandrashekar et al., Cell (2000) 100:703-711) that stably expresses Gα15 and hT1R2/hT1R3 (Li et al., Proc Natl Acad Sci USA (2002) 99:4692-4696), see also PCT Publication No. WO 03/001876 A2) was used to identify compounds with sweet taste enhancing properties.
Compounds covered in this document were initially selected based on their activity on the hT1R2/hT1R3-HEK293-Gα15 cell line (Li et al. vide supra). Activity was determined using an automated fluorometric imaging assay on a FLIPR instrument ([…], Molecular Devices, Sunnyvale, Calif.) (designated FLIPR assay). Cells from one clone (designated S-9 cells) were seeded into 384-well plates (at approximately 50,000 cells per well) in a medium containing DMEM Low Glucose (Invitrogen, Carlsbad, Calif.), 10% dialyzed fetal bovine serum (Invitrogen, Carlsbad, Calif.), 100 Units/ml Penicillin G, and 100 μg/ml Streptomycin (Invitrogen, Carlsbad, Calif.) (Li et al. vide supra) see also PCT Publication No. WO 03/001876 A2). S-9 cells were grown for 24 hours at 37° C. S-9 cells were then loaded with the calcium dye Fluo-3AM (Molecular Probes, Eugene, Oreg.), 4 μM in a phosphate buffered saline (D-PBS) (Invitrogen, Carlsbad, Calif.), for 1 hour at room temperature. After replacement with 25 μl D-PBS, stimulation was performed in the FLIPR instrument and at room temperature by the addition of 25 μl D-PBS supplemented with different stimuli at concentrations corresponding to twice the desired final level. Receptor activity was quantified by determining the maximal fluorescence increases (using a 480 nm excitation and 535 nm emission) after normalization to basal fluorescence intensity measured before stimulation.
For dose-responses analysis, stimuli were presented in duplicates at 10 different concentrations ranging from 60 nM to 30 μM. Activities were normalized to the response obtained with 400 mM D-fructose, a concentration that elicits maximum receptor response. EC50s were determined using a non-linear regression algorithm (using a Senomyx, Inc. software), where the Hill slope, bottom asymptotes and top asymptotes were allow to vary. Identical results were obtained when analyzing the dose-response data using commercially available software for non-linear regression analysis such as GraphPad PRISM (San Diego, Calif.).

| EC50 [µM] | Structure (SMILES) |
| --- | --- |
| 1.25 | CCC(CO)NC(=O)C(C)(C)c1ccc(-c2ccoc2)cc1 (stereo not shown) [Compound A77] |
| 0.37 | CC(C)(C(=O)NC1CCC1)c1ccc(-c2cncc(C#N)n2)cc1 [Compound A49] |
| 1.17 | CC(C)(C(=O)NCC(O)c1ccccc1)c1ccc(-c2cncc(C#N)c2)cc1 (stereo not shown) [Compound A61] |
| 0.32 | CC(C)CNC(=O)C(C)(C)c1ccc(-c2cocc2C#N)cc1 [Compound A48] |
| 0.27 | CC(C)(C(=O)NCC1CC1)c1ccc(-c2cncc(C#N)n2)cc1 [Compound A45] |
| 0.03 | CCC(CC)NC(=O)C(C)(C)c1ccc(-c2cncc(C#N)n2)cc1 [Compound A40] |
| 0.92 | COCc1cccc(-c2ccc(C(C)(C)C(=O)NC(C)C)cc2)c1 [Compound A57] |
| 0.9 | CCC(C(=O)NCC(C)C)c1ccc(-c2ccccc2)cc1 (stereo not shown) [Compound A93] |
| 0.37 | CC[C@@H](C)NC(=O)C(C)(C)c1ccc(-c2cncc(C#N)n2)cc1 [Compound A50] |
| 0.68 | CC[C@@H](CO)NC(=O)C(C)(C)c1ccc(-c2cncc(C#N)c2)cc1 [Compound A75] |
| 0.11 | CC(C)(C(=O)NCC1CC1)c1ccc(-c2cncc(C#N)c2)cc1 [Compound A84] |
| 1.05 | CC[C@@H](C)NC(=O)C(C)(C)c1ccc(-c2cncc(COC)c2)cc1 [Compound A58] |
| 0.67 | CCCNC(=O)C(C)(C)c1ccc(-c2cccc(COC)c2)cc1 [Compound A78] |
| 0.67 | CC(C)CNC(=O)C(C)(C)c1ccc(-c2cccc3c2COCOC3)cc1 [Compound A79] |

The next lines start with the molecule.

| Structure (SMILES) | EC50 [µM] |
| --- | --- |
| COCc1cccc(-c2ccc(C(C)(C)C(=O)NCC(C)C)cn2)c1 [Compound A31] | 3.79 |
| CC(C)CNC(=O)C(C)c1ccc(-c2cccc(F)c2)cc1 (stereo not shown) [Compound A6] | 1.8 |
| CCc1ccccc1-c1ccc(C(C)(C)C(=O)NCC(C)C)cc1 [Compound A13] | 7 |
| COCOCc1c(C=O)cccc1-c1ccc(C(C)(C)C(=O)NCC(C)C)cc1 [Compound A23] | 1.1 |
| CCC(COC)NC(=O)C(C)c1ccc(-c2ccccc2)c(F)c1 (stereo not shown) [Compound A12] | 4.5 |
| CC(C)CNC(=O)Cc1ccc(-c2ccccc2)c(F)c1 [Compound A8] | 7.5 |
| CCCOc1cccc(-c2ccc(C(C)(C)C(=O)NCC(C)C)cc2)c1 [Compound A17] | 5.6 |
| CCCNC(=O)C(C)(C)c1ccc(-c2cncc(COC)c2)cc1 [Compound A29] | 2.91 |
| CC(C)CNC(=O)C(C)(C)c1ccc(-c2cnc3ccccn23)cc1 [Compound A25] | 1.23 |
| CC(C)CNC(=O)C(C)(C)c1ccc(-c2ccccc2)c(O)c1 [Compound A67] | 1.42 |
| CC(C)CNC(=O)C(C)(C)c1ccc(-c2cnco2)cc1 [Compound A35] | 11.5 |

Same assay, conditions: read-out: EC50 for activation of a hT1R2/hT1R3 sweet receptor expressed in HEK293 cell line

| EC50 [µM] | Structure (SMILES) |
| --- | --- |
| 4.55 | CC(C(=O)NCc1ccco1)c1ccc(-c2ccccc2)c(F)c1 (stereo not shown) [Compound 4, 2-(2-fluorobiphenyl-4-yl)-N-(furan-2-ylmethyl)propanamide] |
| 1.19 | CC(C)(C(=O)NCC(O)c1ccco1)c1ccc(-c2cncc(C#N)c2)cc1 (stereo not shown) [Compound 46, 2-(4-(5-cyanopyridin-3-yl)phenyl)-N-(2-(furan-2-yl)-2-hydroxyethyl)-2-methylpropanamide] |
| 0.26 | COCc1cncc(-c2ccc(C(C)(C)C(=O)NCC(C)C)cc2)n1 [Compound 29, N-isobutyl-2-(4-(6-(methoxymethyl)pyrazin-2-yl)phenyl)-2-methylpropanamide] |
| 0.92 | COC(C)CNC(=O)C(C)(C)c1ccc(-c2cncc(C#N)n2)cc1 (stereo not shown) [Compound 45, 2-(4-(6-cyanopyrazin-2-yl)phenyl)-N-(2-methoxypropyl)-2-methylpropanamide] |
| 0.65 | CC(C)[C@@H](C)NC(=O)C(C)(C)c1ccc(-c2cncnc2)cc1 [Compound 44, (R)-2-methyl-N-(3-methylbutan-2-yl)-2-(4-(pyrimidin-5-yl)phenyl)propanamide] |
| 0.19 | CC(NC(=O)C(C)(C)c1ccc(-c2cncc(C#N)n2)cc1)c1ccco1 (stereo not shown) [Compound 48, 2-(4-(6-cyanopyrazin-2-yl)phenyl)-N-(1-(furan-2-yl)ethyl)-2-methylpropanamide] |
| 1.03 | CC[C@@H](CO)NC(=O)C(C)(C)c1ccc(-c2cncc(C#N)n2)cc1 [Compound 51, (S)-2-(4-(6-cyanopyrazin-2-yl)phenyl)-N-(1-hydroxybutan-2-yl)-2-methylpropanamide] |
| 14.9 | CC(C)CNC(=O)C(C)(C)c1cnn(-c2ccccc2)c1 [Compound 31, N-isobutyl-2-methyl-2-(1-phenyl-1H-pyrazol-4-yl)propanamide] |
| 1.04 | Cc1cscc1-c1ccc(C(C)(C)C(=O)NCC(C)C)cc1O [Compound 35, 2-(3-hydroxy-4-(4-methylthiophen-3-yl)phenyl)-N-isobutyl-2-methylpropanamide] |
| 10.6 | CC(C)CNC(=O)C(C)(C)c1ccc(-c2cncc(C#N)c2)cn1 [Compound 42, 2-(5′-cyano-3,3′-bipyridin-6-yl)-N-isobutyl-2-methylpropanamide] |
| 2.7 | CC(C)CNC(=O)C(C)(C)c1ccc(-c2cccc(C(=O)N(C)C)c2)cc1 [Compound 17, 2-(3′-((dimethylamino)carbonyl)biphenyl-4-yl)-N-isobutyl-2-methylpropanamide] |
| 1.24 | CC(C)CNC(=O)C(C)(C)c1ccc(-c2ccsc2)cc1 [Compound 7, N-isobutyl-2-methyl-2-(4-(thiophen-3-yl)phenyl)propanamide] |
| 6.5 | COCCNC(=O)C(C)c1ccc(-c2ccccc2)c(F)c1 (stereo not shown) [Compound 5, 2-(2-fluorobiphenyl-4-yl)-N-(2-methoxyethyl)propanamide] |
| 1.9 | Cc1ccccc1-c1ccc(C(C)(C)C(=O)NCC(C)C)cc1 [Compound 12, N-isobutyl-2-methyl-2-(2′-methylbiphenyl-4-yl)propanamide] |
| 4.3 | COc1cccc(-c2ccc(C(C)(C)C(=O)NCC(C)C)cc2)c1 [Compound 19, N-isobutyl-2-(3′-methoxybiphenyl-4-yl)-2-methylpropanamide] |
